Data from patent US11078202B2, “β-lactamase inhibitor and use thereof” (priority 2018, dated 2021).
Structures can show the parent of a compound that is named as a salt.

Legend:
Assay type in all cases: cell-based
[1] = system: Klebsiella pneumoniae XNWB 0003; assay: MIC assay of test compounds combined with imipenem (4 μg/mL); conditions: imipenem 4 μg/mL fixed
Procedure, shortened: (§1)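 MIC determined by CLSI-guided broth microdilution in CAMHB after 16-20 h at 35±2 °C, with growth and sterile control wells. Test compound series co-dosed with fixed-level ceftazidime or imipenem; inoculum from TSA-grown colonies, adjusted to OD600 0.1-0.15 then diluted 300-fold.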

[2] = system: Klebsiella pneumoniae XNWB 0006; assay: as above; conditions: imipenem 4 μg/mL fixed
Procedure, shortened: as §1

[3] = system: Klebsiella pneumoniae XNWB 0005; assay: as above; conditions: imipenem 4 μg/mL fixed
Procedure, shortened: as §1

[4] = system: Acinetobacter baumannii XNWB 0007; assay: as above; conditions: imipenem 4 μg/mL fixed
Procedure, shortened: as §1

[5] = system: Klebsiella pneumoniae XNWB 0001; assay: as above; conditions: imipenem 4 μg/mL fixed
Procedure, shortened: as §1

[6] = system: Klebsiella pneumoniae XNWB 0002; assay: as above; conditions: imipenem 4 μg/mL fixed
Procedure, shortened: as §1

[7] = system: Pseudomonas aeruginosa XNWB 0008; assay: as above; conditions: imipenem 4 μg/mL fixed
Procedure, shortened: as §1

[8] = system: Klebsiella pneumoniae XNWB 0004; assay: as above; conditions: imipenem 4 μg/mL fixed
Procedure, shortened: as §1

[9] = system: Klebsiella pneumoniae XNWB 0003; assay: MIC assay of test compounds combined with ceftazidime (8 μg/mL); conditions: ceftazidime 8 μg/mL fixed
Procedure, shortened: as §1

[10] = system: Klebsiella pneumoniae XNWB 0006; assay: as above; conditions: ceftazidime 8 μg/mL fixed
Procedure, shortened: as §1

[11] = system: Klebsiella pneumoniae XNWB 0005; assay: as above; conditions: ceftazidime 8 μg/mL fixed
Procedure, shortened: as §1

[12] = system: Acinetobacter baumannii XNWB 0007; assay: as above; conditions: ceftazidime 8 μg/mL fixed
Procedure, shortened: as §1

[13] = system: Klebsiella pneumoniae XNWB 0001; assay: as above; conditions: ceftazidime 8 μg/mL fixed
Procedure, shortened: as §1

[14] = system: Klebsiella pneumoniae XNWB 0002; assay: as above; conditions: ceftazidime 8 μg/mL fixed
Procedure, shortened: as §1

[15] = system: Pseudomonas aeruginosa XNWB 0008; assay: as above; conditions: ceftazidime 8 μg/mL fixed
Procedure, shortened: as §1

[16] = system: Klebsiella pneumoniae XNWB 0004; assay: as above; conditions: ceftazidime 8 μg/mL fixed
Procedure, shortened: as §1

SMILES | The minimum concentration of test compounds combined with imipenem (4 μg/mL) for bacteriostasis [1] | The minimum concentration of test compounds combined with imipenem (4 μg/mL) for bacteriostasis [2] | The minimum concentration of test compounds combined with imipenem (4 μg/mL) for bacteriostasis [3] | The minimum concentration of test compounds combined with imipenem (4 μg/mL) for bacteriostasis [4] | The minimum concentration of test compounds combined with imipenem (4 μg/mL) for bacteriostasis [5] | The minimum concentration of test compounds combined with imipenem (4 μg/mL) for bacteriostasis [6] | The minimum concentration of test compounds combined with imipenem (4 μg/mL) for bacteriostasis [7] | The minimum concentration of test compounds combined with imipenem (4 μg/mL) for bacteriostasis [8] | The minimum concentration of test compounds combined with ceftazidime (8 μg/mL) for bacteriostasis [9] | The minimum concentration of test compounds combined with ceftazidime (8 μg/mL) for bacteriostasis [10] | The minimum concentration of test compounds combined with ceftazidime (8 μg/mL) for bacteriostasis [11] | The minimum concentration of test compounds combined with ceftazidime (8 μg/mL) for bacteriostasis [12] | The minimum concentration of test compounds combined with ceftazidime (8 μg/mL) for bacteriostasis [13] | The minimum concentration of test compounds combined with ceftazidime (8 μg/mL) for bacteriostasis [14] | The minimum concentration of test compounds combined with ceftazidime (8 μg/mL) for bacteriostasis [15] | The minimum concentration of test compounds combined with ceftazidime (8 μg/mL) for bacteriostasis [16]
NC(=O)[C@@H]1CC[C@@H]2CN1C(=O)N2OS(=O)(=O)O [Avibactam, reference compound] | A (A: <8 μg/mL) | A (A: <8 μg/mL) | A (A: <8 μg/mL) | C (C: 16-128 μg/mL) | A (A: <8 μg/mL) | A (A: <8 μg/mL) | A (A: <8 μg/mL) | A (A: <8 μg/mL) | A (A: <8 μg/mL) | A (A: <8 μg/mL) | A (A: <8 μg/mL) | C (C: 16-128 μg/mL) | A (A: <8 μg/mL) | A (A: <8 μg/mL) | A (A: <8 μg/mL) | A (A: <8 μg/mL)
N=C1NC[C@@H](c2nnc([C@@H]3CC4(CC4)[C@@H]4CN3C(=O)N4OS(=O)(=O)O)o2)N1 [Example 55, (1R,4S)-4-(5-((S)-2-iminoimidazolidin-4-yl)-1,3,4-oxadiazol-2-yl)-6-oxo-5,7-diazaspiro [bicyclo[3.2.1]octane-2,1′-cyclopropan]-7-yl sulfate] | A (A: <8 μg/mL) | A (A: <8 μg/mL) | A (A: <8 μg/mL) | A (A: <8 μg/mL) | A (A: <8 μg/mL) | A (A: <8 μg/mL) | A (A: <8 μg/mL) | A (A: <8 μg/mL) | A (A: <8 μg/mL) | A (A: <8 μg/mL) | A (A: <8 μg/mL) | C (C: 16-128 μg/mL) | A (A: <8 μg/mL) | A (A: <8 μg/mL) | B (B: 8-16 μg/mL) | A (A: <8 μg/mL)
CN(Cc1cc([C@@H]2CC3(CC3)[C@@H]3CN2C(=O)N3OS(=O)(=O)O)no1)C(=N)N [Example 33, (1R,4S)-4-(5-((1-methylguanidino)methyl)isoxazol-3-yl)-6-oxo-5,7-diazaspiro[bicycle [3.2.1]octane-2,1′-cyclopropan]-7-yl sulfate] | A (A: <8 μg/mL) | A (A: <8 μg/mL) | A (A: <8 μg/mL) | C (C: 16-128 μg/mL) | A (A: <8 μg/mL) | A (A: <8 μg/mL) | B (B: 8-16 μg/mL) | A (A: <8 μg/mL) | C (C: 16-128 μg/mL) | A (A: <8 μg/mL) | B (B: 8-16 μg/mL) | C (C: 16-128 μg/mL) | B (B: 8-16 μg/mL) | A (A: <8 μg/mL) | C (C: 16-128 μg/mL) | C (C: 16-128 μg/mL)
N=C(N)NC[C@H](O)c1nnc([C@@H]2CC3(CC3)[C@@H]3CN2C(=O)N3OS(=O)(=O)O)o1 [Example 12, (1R,4S)-4-(5-((S)-2-guanidyl-1-hydroxyethyl)-1,3,4-oxadiazol-2-yl)-6-oxo-5,7-diazaspiro[bicyclo[3.2.1]octane-2,1′-cyclopropan]-7-yl sulfate] | A (A: <8 μg/mL) | A (A: <8 μg/mL) | A (A: <8 μg/mL) | B (B: 8-16 μg/mL) | A (A: <8 μg/mL) | A (A: <8 μg/mL) | B (B: 8-16 μg/mL) | A (A: <8 μg/mL) | A (A: <8 μg/mL) | A (A: <8 μg/mL) | A (A: <8 μg/mL) | C (C: 16-128 μg/mL) | B (B: 8-16 μg/mL) | A (A: <8 μg/mL) | C (C: 16-128 μg/mL) | B (B: 8-16 μg/mL)
